The values below come from US20190389843A1, “PYRROLE mTORC INHIBITORS AND USES THEREOF” (Navitor Pharmaceuticals, Inc., priority 2016, published 2019).

Test [1] relates to pS6K1 in MCF7 (measure of mTORC1 activity). Briefly: AlphaLISA Ultra pS6K1 assay. The format is cell-based. The conditions noted are these: Homo sapiens, MCF7, 2 h, MCF-7 cells, 2 hours compound incubation. As for the experimental part: (§1) Assay Protocol: • 1. […] 12,000˜16,000 cells will be seeded in 36 μL medium per well. • 2. Change the culture medium with fresh medium and incubate for another 2 hours. • 3. Add 12 μL (4λ) compounds into the cell plate by HAMILTON. Final DMSO concentration is 0.5%. Incubate for 2 hours. • 4. Aspirate 38 μL by HAMILTON, 10 μL rest per well. • 5. Add 10 μL 2× lysis buffer using HAMILTON; total volume in wells is 20 μL. Allow cells to shake for 30 min. Cover plate by plastic foil and store plate at −80° C. up to analysis. • 6. […] Add 5 ul acceptor beads into assay plate and incubation for 2 hours • 8. Add 5 ul donor beads and incubation for 2 hours • 9. Count the plate by EnSpire Multimode Plate Reader

The test system of test [2] is pAKT in MCF7 (measure of mTORC2 activity). Briefly: AlphaLISA Ultra pAKT assay. As to conditions: Homo sapiens, MCF7, 2 h, MCF-7 cells, 2 hours compound incubation. The format is cell-based. As for the experimental part:
as §1, with “16,000˜20,000” for “12,000˜16,000”, “(4×)” for “(4λ)”

For `Cc1c(CN2CCN(c3ncccc3Cl)CC2)cc(C(=O)N2CCN(c3ccc(F)c(F)c3)CC2)n1C` [Example I-84, (4-((4-(3-chloropyridin-2-yl)piperazin-1-yl)methyl)-1,5-dimethyl-1H-pyrrol-2-yl)(4-(3,4-difluorophenyl)piperazin-1-yl)methanone], the IC50 in test [1] was 10 to 1000 nM; in test [2] it was over 3000 nM.

For `Cc1c(CN2CCN(c3ccccc3Cl)CC2)cc(C(=O)N2CCN(c3cc(F)ccc3C#N)CC2)n1C` [Example I-85, 2-(4-(4-((4-(2-Chlorophenyl)piperazin-1-yl)methyl)-1,5-dimethyl-1H-pyrrole-2-carbonyl)piperazin-1-yl)-4-fluorobenzonitrile], the concentration for half-maximal inhibition (IC50) was 10 to 1000 nM in test [1] and over 3000 nM in test [2].

`Cc1c(CN2CCN(c3ccccc3Cl)CC2)cc(C(=O)N2CCN(c3cc(F)ccc3C#N)C[C@@H]2C)n1C` [Example I-86, (S)-2-(4-(4-((4-(2-chlorophenyl)piperazin-1-yl)methyl)-1,5-dimethyl-1H-pyrrole-2-carbonyl)-3-methylpiperazin-1-yl)-4-fluorobenzonitrile]: the IC50 in test [1] was 10 to 1000 nM; in test [2], over 10000 nM.

In the case of `C[C@H]1CN(c2cc(F)ccc2C#N)CCN1C(=O)c1cc(CN2CCN(c3ccccc3Cl)CC2)cn1C` [Example I-87, (S)-2-(4-(4-((4-(2-chlorophenyl)piperazin-1-yl)methyl)-1-methyl-1H-pyrrole-2-carbonyl)-3-methylpiperazin-1-yl)-4-fluorobenzonitrile], the IC50 was 10 to 1000 nM in test [1] and over 5000 nM in test [2].

With `C[C@H]1CN(c2cc(F)c(F)c(F)c2)CCN1C(=O)c1cc(CN2CCN(c3ccccc3Cl)CC2)cn1C` [Example I-88, (S)-(4-((4-(2-chlorophenyl)piperazin-1-yl)methyl)-1-methyl-1H-pyrrol-2-yl)(2-methyl-4-(3,4,5-trifluorophenyl)piperazin-1-yl)methanone], the IC50 in test [1] is 1000 to 3000 nM; in test [2] it was over 10000 nM.

Consider `Cc1c(CN2CCN(c3ccccc3Cl)CC2)cc(C(=O)N2CCN(c3cc(F)c(F)c(F)c3)C[C@@H]2C)n1C` [Example I-89, (S)-(4-((4-(2-Chlorophenyl)piperazin-1-yl)methyl)-1,5-dimethyl-1H-pyrrol-2-yl)(2-methyl-4-(3,4,5-trifluorophenyl)piperazin-1-yl)methanone], for which the IC50 was 3000 to 10000 nM in test [1] and over 10000 nM in test [2].

For `Cc1c(CN2CCN(c3ncccc3Cl)CC2)cc(C(=O)N2CCN(c3cccc(Cl)c3)C[C@@H]2C)n1C` [Example I-90, (S)-(4-(3-chlorophenyl)-2-methylpiperazin-1-yl)(4-((4-(3-chloropyridin-2-yl)piperazin-1-yl)methyl)-1,5-dimethyl-1H-pyrrol-2-yl)methanone], the values for the IC50 in test [1] and in test [2] were 1000 to 3000 nM and over 3000 nM, respectively.

As to `Cc1c(CN2CCN(c3ccccc3Cl)CC2)cc(C(=O)N2CCn3c(nc4ccccc43)C2)n1C` [Example I-91, (4-((4-(2-chlorophenyl)piperazin-1-yl)methyl)-1,5-dimethyl-1H-pyrrol-2-yl)(3,4-dihydrobenzo[4,5]imidazo[1,2-a]pyrazin-2(1H)-yl)methanone], the IC50 in test [1] was 10 to 1000 nM; in test [2] it was over 5000 nM.

As for `Cc1c(CN2CCN(c3ncccc3Cl)CC2)cc(C(=O)N2CCN(c3ccc(F)cc3)C[C@@H]2C)n1C` [Example I-92, (S)-(4-((4-(3-chloropyridin-2-yl)piperazin-1-yl)methyl)-1,5-dimethyl-1H-pyrrol-2-yl)(4-(4-fluorophenyl)-2-methylpiperazin-1-yl)methanone], the IC50 is 10 to 1000 nM in test [1] and over 1000 nM in test [2].

For `Cc1c(CN2CCN(c3ccccc3Cl)CC2)cc(C(=O)N2CCN(c3cc(F)cc(F)c3)C[C@@H]2C)n1C` [Example I-93, (S)-(4-((4-(2-chlorophenyl)piperazin-1-yl)methyl)-1,5-dimethyl-1H-pyrrol-2-yl)(4-(3,5-difluorophenyl)-2-methylpiperazin-1-yl)methanone], the IC50 in test [1] was 10 to 1000 nM; in test [2], over 5000 nM.

As to `C[C@H]1CN(c2cc(F)cc(F)c2)CCN1C(=O)c1cc(CN2CCN(c3ccccc3Cl)CC2)cn1C` [Example I-94, (S)-(4-((4-(2-chlorophenyl)piperazin-1-yl)methyl)-1-methyl-1H-pyrrol-2-yl)(4-(3,5-difluorophenyl)-2-methylpiperazin-1-yl)methanone], the IC50 in test [1] is 10 to 1000 nM; in test [2] it was over 5000 nM.

For the molecule `Cc1c(CN2CCN(c3ccccc3Cl)CC2)cc(C(=O)N2CCN(c3ccc(F)cc3)C[C@@H]2C)n1C` [Example I-95, (S)-(4-((4-(2-chlorophenyl)piperazin-1-yl)methyl)-1,5-dimethyl-1H-pyrrol-2-yl)(4-(4-fluorophenyl)-2-methylpiperazin-1-yl)methanone], the IC50 in test [1] was 10 to 1000 nM; in test [2] it was over 3000 nM.

For the molecule `Cc1c(CN2CCN(c3ccccc3Cl)CC2)cc(C(=O)N2CCN(c3cc(F)cc(F)c3)CC2)n1C` [Example I-96, (4-((4-(2-chlorophenyl)piperazin-1-yl)methyl)-1,5-dimethyl-1H-pyrrol-2-yl)(4-(3,5-difluorophenyl)piperazin-1-yl)methanone], the IC50 is 10 to 1000 nM in test [1] and over 3000 nM in test [2].

As for `Cc1c(CN2CCN(c3ccccc3N=[N+]=[N-])CC2)cc(C(=O)N2CCN(c3ccccc3)CC2)n1C` [Example I-97, (4-((4-(2-azidophenyl)piperazin-1-yl)methyl)-1,5-dimethyl-1H-pyrrol-2-yl)(4-phenylpiperazin-1-yl)methanone], the IC50 in test [1] is 1000 to 3000 nM; in test [2] it was over 5000 nM.

`Cc1c(CN2CCN(c3ncccc3Cl)CC2)cc(C(=O)N2CCN(c3cccc(Cl)c3)CC2)n1C` [Example I-98, 1-({5-[4-(3-Chlorophenyl)piperazine-1-carbonyl]-1,2-dimethyl-1H-pyrrol-3-yl}methyl)-4-(3-chloropyridin-2-yl)piperazine]: the IC50 was 10 to 1000 nM in test [1] and over 3000 nM in test [2].

Turning to `Cc1c(CN2CCN(c3ncccc3Cl)CC2)cc(C(=O)N2CCN(c3cccc(C#N)c3)C[C@@H]2C)n1C` [Example I-99, (S)-3-(4-(4-((4-(3-chloropyridin-2-yl)piperazin-1-yl)methyl)-1,5-dimethyl-1H-pyrrole-2-carbonyl)-3-methylpiperazin-1-yl)benzonitrile], the IC50 was 10 to 1000 nM in test [1] and over 3000 nM in test [2].

With `Cc1c(CN2CCN(c3ccccc3Cl)CC2)cc(C(=O)N2CCN(c3ccccc3C#N)C[C@@H]2C)n1C` [Example I-100], the IC50 in test [1] is 10 to 1000 nM; in test [2], over 10000 nM.

Consider `C[C@H]1CN(c2cccc(F)c2C#N)CCN1C(=O)c1cc(CN2CCN(c3ccccc3Cl)CC2)cn1C` [Example I-101, (S)-2-(4-(4-((4-(2-chlorophenyl)piperazin-1-yl)methyl)-1-methyl-1H-pyrrole-2-carbonyl)-3-methylpiperazin-1-yl)-6-fluorobenzonitrile], for which the IC50 in test [1] was 10 to 1000 nM; in test [2] it was over 5000 nM.

Regarding `Cc1c(CN2CCN(c3ccccc3Cl)CC2)cc(C(=O)N2CCN(c3cccc(F)c3C#N)C[C@@H]2C)n1C` [Example I-102, (S)-2-(4-(4-((4-(2-chlorophenyl)piperazin-1-yl)methyl)-1,5-dimethyl-1H-pyrrole-2-carbonyl)-3-methylpiperazin-1-yl)-6-fluorobenzonitrile], the IC50 in test [1] is 10 to 1000 nM; in test [2], over 10000 nM.

As to `C[C@@H]1CN(Cc2cc(C(=O)N3CCN(c4ccc(F)cc4)CC3)n(C)c2)CCN1c1ccccc1Cl` [Example I-103], the IC50 in test [1] was 1000 to 3000 nM; in test [2], over 10000 nM.

For the molecule `Cc1c(CN2CCN(c3ccccc3Cl)CC2)cc(C(=O)N2CCN(c3cccc(N=[N+]=[N-])c3)C[C@@H]2C)n1C` [Example I-104, (S)-(4-(3-azidophenyl)-2-methylpiperazin-1-yl)(4-((4-(2-chlorophenyl)piperazin-1-yl)methyl)-1,5-dimethyl-1H-pyrrol-2-yl)methanone], the IC50 in test [1] was 1000 to 3000 nM; in test [2], over 5000 nM.

For the molecule `Cc1c(CN2CCN(c3ccccc3Cl)CC2)cc(C(=O)N2CCN(c3ccc(F)c(C#N)c3)CC2)n1C` [Example I-105, 5-(4-(4-((4-(2-Chlorophenyl)piperazin-1-yl)methyl)-1,5-dimethyl-1H-pyrrole-2-carbonyl)piperazin-1-yl)-2-fluorobenzonitrile], the IC50 in test [1] is 10 to 1000 nM; in test [2], over 3000 nM.

Consider `CC(c1cc(C(=O)N2CCN(c3ccccc3)CC2)n(C)c1)N1CCN(c2ccccc2Cl)CC1` (stereo not drawn) [Example I-106, 1-(2-Chlorophenyl)-4-{1-[1-methyl-5-(4-phenylpiperazine-1-carbonyl)-1H-pyrrol-3-yl]ethyl}piperazine], for which the IC50 in test [1] is 1000 to 3000 nM; in test [2], over 3000 nM.

With `Cc1c(CN2CCN(c3ccccc3Cl)CC2)cc(C(=O)N2CCN(c3cccc(F)c3C#N)CC2)n1C` [Example I-107, 2-(4-(4-((4-(2-chlorophenyl)piperazin-1-yl)methyl)-1,5-dimethyl-1H-pyrrole-2-carbonyl)piperazin-1-yl)-6-fluorobenzonitrile], the values for the IC50 in test [1] and in test [2] were 10 to 1000 nM and over 3000 nM, respectively.
